# Assay results as given in patent publication US20160081912A1, “COMPOSITIONS FOR IMPROVING THE HAIR, SKIN, AND NAILS” (FYBRANDS CORP., priority 2013, published 2016).
# Experiment: Solubility of cycloastragalus in water, acetone and oil carriers
# Assay type: physicochemical
# Source text: In certain embodiments, the disclosure provides compositions to deliver the active ingredient to the root bulb of the hair follicle. Cycloastragalus is not soluble in water. Creating a cream formulation could possibly lead to clogging of pores at the site of the hair follicle, which could negatively affect restoration of the follicle. In certain aspects, the present disclosure relates to delivery of cycloastragalus using oil-based formulations. Oil is absorbed into the stratum corneum and deeper layers of the skin where the root bulb cells are located.
# Initial attempts at determining an appropriate oil carrier were done using either or in combination together C10-30 Cholesterol and Lanosterol esters.
# Further attempts were then made in to dissolve the cycloastragalus in oil carrier.
# Cycloastragalus is soluble in acetone. We evaluated the possibility that cycloastragalus could be first dissolved in acetone and then put into solution with an oil carrier. Since acetone evaporates to completion out of any open system, it could be removed leaving the cycloastragalus in solution. One should keep in mind that acetone is incredibly flammable, and methods for removing acetone should be chosen carefully.
structure (smiles),measurement,setting,value
"CC(C)(O)[C@@H]1CC[C@](C)([C@H]2[C@@H](O)C[C@@]3(C)[C@@H]4C[C@H](O)[C@H]5C(C)(C)[C@@H](O)CC[C@@]56C[C@@]46CC[C@]23C)O1 [Cycloastragalus, cycloastragenol]",solubility in acetone,acetone,soluble
same,dissolving in oil carrier,"oil carrier, direct dissolution without acetone",limited success
same,solubility in water,,not soluble
same,solubility in water,listed as cycloastragalus,very limited results
